For this experiment, the target named is T1, MAPK8 (JNK1) (Homo sapiens, UniProt P45983).
T1 construct: purchased Thermo Fisher Scientific (Life Technologies) SelectScreen
The experiment can be described thus: SelectScreen Z'LYTE. The note with it: ATP 100 µM. The class given is biochemical. Put shortly:
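SelectScreen broad panel; activity (Z'LYTE, Adapta) plus binding formats. ATP: Km app for CSF1R Z'LYTE; 10 for CAMK1 Adapta. Readout = % per kinase.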

T1 sequence (P45983 whole entry): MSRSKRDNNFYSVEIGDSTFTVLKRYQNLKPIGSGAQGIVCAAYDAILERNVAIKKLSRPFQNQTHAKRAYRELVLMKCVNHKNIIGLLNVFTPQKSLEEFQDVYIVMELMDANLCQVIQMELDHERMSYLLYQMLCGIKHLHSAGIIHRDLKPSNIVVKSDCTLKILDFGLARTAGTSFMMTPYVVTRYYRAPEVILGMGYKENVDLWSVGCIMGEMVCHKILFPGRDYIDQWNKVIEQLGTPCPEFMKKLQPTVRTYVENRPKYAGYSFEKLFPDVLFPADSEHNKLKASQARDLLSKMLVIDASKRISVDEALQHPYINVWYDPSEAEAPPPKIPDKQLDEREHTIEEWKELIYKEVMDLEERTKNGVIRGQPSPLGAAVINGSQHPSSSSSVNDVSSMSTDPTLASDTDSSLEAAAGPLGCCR

`CN(C(=O)CN1CCOCC1)c1ccc2sc3c(-c4cccc5c(=O)cc(N6CC7CCC(C6)O7)oc45)cccc3c2c1` [NU5455] came in with an inhibition at 1 µM of 12%.

Usually inhibition stands for how much of the control response was suppressed. The low end stands for a weak effect, the high end for a strong effect.
